Experimental data from US9023803B2, “Cancer therapy based on tumor associated antigens derived from cyclin D1” (Immatics Biotechnologies GmbH, priority 2010, dated 2015).

Experiments:
[1] = tested on: patients; test: Clinical study of vaccine IMA901 with or without prior cyclophosphamide; assay type: in vivo, human
Excerpt: (§1) Some patients received a prior TKI therapy with sunitinib or sorafenib, others a prior cytokine therapy with interferon or interleukin.
Both patient groups were followed up for progression-free survival (PFS) and overall survival (OS).

[2] = tested on: regulatory T cells; conditions: low-dose cyclophosphamide 300 mg/m^2 single infusion before vaccination
Excerpt: Absolute counts are shown in (A), percent change from baseline is shown in (B).
as §1

[3] = tested on: HLA-A*02; test: HLA-restriction: binding to HLA-A*02; parameters: species or system human
[4] = tested on: HLA-A*68; test: HLA-restriction: binding to HLA-A*68; parameters: species or system human
[5] = tested on: HLA-A*26; test: HLA-restriction: binding to HLA-A*26; parameters: species or system human
[6] = target: HLA A*0201 (Homo sapiens, UniProt P04439, D140Y/D185E/D98H/E176V/E277Q/G131W/G231S/I119V/I121R/I166T/I218V/L300P/L318F/N151K/N90K/P208A/P217A/Q86G/Q94H/R138H/R169H/T345S); test: ELISA-based HLA binding method (Sylvester-Hvid et al., 2002)
[7] = tested on: CTL; conditions: HLA-A2+ healthy donors, colon cancer and mantle cell lymphoma patients; CD40-activated B cells as APCs; cited from earlier work
[8] = tested on: HLA-A*02 positive tumor cells endogenously expressing Cyclin D1; conditions: allo-restricted T cells of HLA-A2-negative donors; cited from earlier work
[9] = tested on: cancer patients; test: Prevaccination T cell responses in cancer patients; assay type: in vivo, human; conditions: certain cancer patients
Excerpt: A further aspect of the invention then relates to the use of the peptide or combination according to the invention as a diagnostic tool in the diagnosis of cancer. Basically, the presence of the peptides or a combination thereof in the patient indicates cancer. […] Again, for the diagnosis, the peptides can be labeled. Furthermore, antibodies against the peptides (or combinations) can also be used. The diagnosis can be performed in vivo or in vitro.

[10] = tested on: HLA class-II; test: HLA-restriction: binding to HLA class-II; parameters: species or system human

In the case of `O=P1(N(CCCl)CCCl)NCCCO1` (stereo not drawn) [cyclophosphamide, reference compound], the “outcome of the treatment using the vaccine after prior low-dose cyclophosphamide” value ([1]; single infusion 300 mg/m^2 before IMA901) is reported as “significantly improved” and the “number of regulatory T cells” value [2] is reported as “reduced”.
For “ALLESSLRQA (listed as Homo sapiens) [CCN-007, cyclin D1-derived peptide, aa 253-262]”, the “binding to HLA-A*02” value [3] was “moderate binder”.
For ETIPLTAEKL [CCN-006], the “binding to HLA-A*68” value [4] was “seems to be a HLA-A*68 binder”.
With “EVFPLAMNY (listed as Homo sapiens) [CCN-004, cyclin D1-derived peptide, aa 76-84]” the “binding to HLA-A*02” value [3] was “practically no binding” and the “binding to HLA-A*26” value [5] was “high binding”.
With “LLGATCMFV (listed as Homo sapiens) [CCN-001, cyclin D1-derived peptide, aa 101-109]” the “survival of patients responding against CCN-001 versus non-CCN-001-responding patients” value ([1]; all vaccinated patients) was “significant longer survival”, the “favorable effect of T cell response against CCN-001 on survival” value ([1]; patient group pretreated with cyclophosphamide) was “even more evident” and the “binding to HLA A*0201” value [6] was “Good binding”. For the same compound, the “generation of CTL specific for the epitope” value [7] was “could be generated”, the “lysis of Cyclin D1 expressing HLA-A*02 positive tumor cells by T cell clones recognizing the peptide” value [8] was “could lyze” and the prevaccination responses [9] was “found”.
In the case of “NPPSMVAAGSVVAAV (listed as Homo sapiens) [CCN-003, cyclin D1-derived peptide, aa 198-212]”, the HLA restriction [10] is reported as “DRB1*0401 restricted” and the “binding to HLA class-II” value [10] is reported as “binds”.
For “YLSGANLNL (listed as Homo sapiens) [CEA-004]”, the prevaccination responses [9] was “found”.
